This passage reports IC50 results from US8486933B2, “Pyrimidine inhibitors of kinase activity” (AbbVie Inc., priority 2009, dated 2013).

pIC50: −log10 of the molar value.

The experiment deals with T1, human IGF-1R (Homo sapiens, UniProt P08069).
T1 construct: human IGF-1R, amino acids 954-1367 expressed by baculovirus in Sf21 cells; GST (C); purchased Cell Signaling Technology; host or cells: baculovirus in Sf21 cells
Briefly: IGF-1R homogenous time-resolved fluorescence (HTRF) in vitro kinase assay. The following applies: recombinant GST-tagged human IGF-1R aa 954-1367; ATP 50 μM; 60 minutes at room temperature. The format is biochemical. The method, then: IGF-1R kinase activity was assayed by a homogenous time-resolved fluorescence (HTRF) in vitro kinase assay (Mathis, G., HTRF(R) Technology. J Biomol Screen, 1999. 4(6): p. 309-314). Specifically, 10 μL C-terminal GST-tagged, recombinant, human IGF-1R, amino acids 954-1367 expressed by baculovirus in Sf21 cells (Cell Singaling Technology) was mixed with 10 μL inhibitor (various concentrations, 2% final DMSO) and 10 μL of ATP (50 μM final concentration) in reaction buffer (50 mM HEPES, pH 7.5, 10 mM MgCl2, 2 mM MnCl2, 0.1% BSA and 1 mM DTT, 40 μL final volume). The reaction was initiated by addition of 10 μL of biotinylated peptide substrate (Biotin-Ahx-[…], 0.5 μM final concentration) in a black 384-well plate (Packard). […] The quenched reaction was allowed to stand at room temperature for 1 hour and then read in a time-resolved fluorescence detector (Envision, Perkin Elmer) at 615 nm and 665 nm simultaneously. The ratio between the signal of 615 nm and 665 nm was used in the calculation of the IC50.

T1 sequence (P08069 954-1367): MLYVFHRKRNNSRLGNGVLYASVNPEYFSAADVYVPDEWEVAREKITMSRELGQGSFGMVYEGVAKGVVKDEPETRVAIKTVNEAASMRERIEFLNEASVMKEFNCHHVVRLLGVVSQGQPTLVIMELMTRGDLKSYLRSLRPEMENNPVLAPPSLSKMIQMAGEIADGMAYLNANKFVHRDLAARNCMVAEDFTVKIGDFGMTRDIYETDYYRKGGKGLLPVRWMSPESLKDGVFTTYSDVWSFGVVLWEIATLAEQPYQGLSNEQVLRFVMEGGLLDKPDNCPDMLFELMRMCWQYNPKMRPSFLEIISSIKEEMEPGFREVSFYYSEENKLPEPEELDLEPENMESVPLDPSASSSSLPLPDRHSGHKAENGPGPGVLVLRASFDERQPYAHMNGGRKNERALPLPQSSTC

For the molecule `CCS(=O)(=O)c1cc2[nH]ncc2cc1Nc1nc(Nc2ccc(N3CCC(N(C)C)CC3)cc2)ncc1Br` [Example 31, 5-bromo-N^2-{4-[4-(dimethylamino)piperidin-1-yl]phenyl}-N^4-[6-(ethylsulfonyl)-1H-indazol-5-yl]pyrimidine-2,4-diamine], the pIC50 (as a rule, the negative decadic logarithm of the IC50, by convention in mol/L) was 7.30 to 8.00. As for `CCS(=O)(=O)c1cc2[nH]ncc2cc1Nc1nc(Nc2ccc(N3CCOCC3)cc2OC)ncc1Br` [Example 32, 5-bromo-N^4-[6-(ethylsulfonyl)-1H-indazol-5-yl]-N^2-(2-methoxy-4-morpholin-4-ylphenyl)pyrimidine-2,4-diamine], the negative logarithm of the IC50 (pIC50) is 7.30 to 8.00.

As for `CCS(=O)(=O)c1cc2c(cnn2C)cc1Nc1nc(Nc2ccc(N3CCC(N(C)C)CC3)cc2OC)ncc1Br` [Example 33, 5-bromo-N^2-{4-[4-(dimethylamino)piperidin-1-yl]-2-methoxyphenyl}-N^4-[6-(ethylsulfonyl)-1-methyl-1H-indazol-5-yl]pyrimidine-2,4-diamine], the pIC50 is over 8.00. In the case of `COc1cc(N2CCC(N(C)C)CC2)ccc1Nc1ncc(Br)c(Nc2cc3cnn(C)c3cc2S(C)(=O)=O)n1` [Example 34, 5-bromo-N^2-{4-[4-(dimethylamino)piperidin-1-yl]-2-methoxyphenyl}-N^4-[1-methyl-6-(methylsulfonyl)-1H-indazol-5-yl]pyrimidine-2,4-diamine] it was 7.30 to 8.00; in that of `CNC(=O)c1cc2c(cnn2C)cc1Nc1nc(Nc2ccc(N3CCC(N(C)C)CC3)cc2OC)ncc1Br` [Example 35, 5-{[5-bromo-2-({4-[4-(dimethylamino)piperidin-1-yl]-2-methoxyphenyl}amino)pyrimidin-4-yl]amino}-N,1-dimethyl-1H-indazole-6-carboxamide], 7.30 to 8.00. Consider `CCS(=O)(=O)c1cc2c(cnn2C)cc1Nc1nc(Nc2ccc(N3CCC(N(C)C)CC3)cc2)ncc1Br` [Example 36, 5-bromo-N^2-{4-[4-(dimethylamino)piperidin-1-yl]phenyl}-N^4-[6-(ethylsulfonyl)-1-methyl-1H-indazol-5-yl]pyrimidine-2,4-diamine], for which the pIC50 was 7.30 to 8.00. Turning to `CN(C)C1CCN(c2ccc(Nc3ncc(Br)c(Nc4cc5cnn(C)c5cc4S(C)(=O)=O)n3)cc2)CC1` [Example 37, 5-bromo-N^2-{4-[4-(dimethylamino)piperidin-1-yl]phenyl}-N^4-[1-methyl-6-(methylsulfonyl)-1H-indazol-5-yl]pyrimidine-2,4-diamine], the negative logarithm of the IC50 (pIC50) was 7.30 to 8.00.

For `CNC(=O)c1cc2c(cnn2C)cc1Nc1nc(Nc2ccc(N3CCC(N(C)C)CC3)cc2)ncc1Br` [Example 38, 5-{[5-bromo-2-({4-[4-(dimethylamino)piperidin-1-yl]phenyl}amino)pyrimidin-4-yl]amino}-N,1-dimethyl-1H-indazole-6-carboxamide], the pIC50 was 7.30 to 8.00. With `CCS(=O)(=O)c1cc2c(cnn2C)cc1Nc1nc(Nc2ccc(N3CCOCC3)cc2OC)ncc1Br` [Example 39, 5-bromo-N^4-[6-(ethylsulfonyl)-1-methyl-1H-indazol-5-yl]-N^2-(2-methoxy-4-morpholin-4-ylphenyl)pyrimidine-2,4-diamine] the figure was 7.30 to 8.00; with `COc1cc(N2CCOCC2)ccc1Nc1ncc(Br)c(Nc2cc3cnn(C)c3cc2S(C)(=O)=O)n1` [Example 40, 5-bromo-N^2-(2-methoxy-4-morpholin-4-ylphenyl)-N^4-[1-methyl-6-(methylsulfonyl)-1H-indazol-5-yl]pyrimidine-2,4-diamine], 7.30 to 8.00; with `CNC(=O)c1cc2c(cnn2C)cc1Nc1nc(Nc2ccc(N3CCOCC3)cc2OC)ncc1Br` [Example 41, 5-({5-bromo-2-[(2-methoxy-4-morpholin-4-ylphenyl)amino]pyrimidin-4-yl}amino)-N,1-dimethyl-1H-indazole-6-carboxamide], 7.30 to 8.00. With `CCS(=O)(=O)c1cc2c(cnn2C)cc1Nc1nc(Nc2ccc(N3CCN(C(C)C)CC3)cc2OC)ncc1Br` [Example 42, 5-bromo-N^4-[6-(ethylsulfonyl)-1-methyl-1H-indazol-5-yl]-N^2-[4-(4-isopropylpiperazin-1-yl)-2-methoxyphenyl]pyrimidine-2,4-diamine] the figure was over 8.00; with `COc1cc(N2CCN(C(C)C)CC2)ccc1Nc1ncc(Br)c(Nc2cc3cnn(C)c3cc2S(C)(=O)=O)n1` [Example 43, 5-bromo-N^2-[4-(4-isopropylpiperazin-1-yl)-2-methoxyphenyl]-N^4-[1-methyl-6-(methylsulfonyl)-1H-indazol-5-yl]pyrimidine-2,4-diamine], 7.30 to 8.00; with `CNC(=O)c1cc2c(cnn2C)cc1Nc1nc(Nc2ccc(N3CCN(C(C)C)CC3)cc2OC)ncc1Br` [Example 44, 5-[(5-bromo-2-{[4-(4-isopropylpiperazin-1-yl)-2-methoxyphenyl]amino}pyrimidin-4-yl)amino]-N,1-dimethyl-1H-indazole-6-carboxamide], 7.30 to 8.00. `CCS(=O)(=O)c1cc2c(cnn2C)cc1Nc1nc(Nc2ccc(N3CCS(=O)(=O)CC3)cc2)ncc1Br` [Example 45, 5-bromo-N^2-[4-(1,1-dioxidothiomorpholin-4-yl)phenyl]-N^4-[6-(ethylsulfonyl)-1-methyl-1H-indazol-5-yl]pyrimidine-2,4-diamine]: the pIC50 was 7.00 to 7.29. In the case of `CCS(=O)(=O)c1cc2c(cnn2C)cc1Nc1nc(Nc2ccc(N3CCC(N4CCN(C)CC4)CC3)cc2OC)ncc1Br` [Example 46, 5-bromo-N^4-[6-(ethylsulfonyl)-1-methyl-1H-indazol-5-yl]-N^2-{2-methoxy-4-[4-(4-methylpiperazin-1-yl)piperidin-1-yl]phenyl}pyrimidine-2,4-diamine] it was over 8.00; in that of `COc1cc(N2CCC(N3CCN(C)CC3)CC2)ccc1Nc1ncc(Br)c(Nc2ccc3nc(-c4ccccc4)ccc3c2)n1` [Example 47, 5-bromo-N^2-{2-methoxy-4-[4-(4-methylpiperazin-1-yl)piperidin-1-yl]phenyl}-N^4-(2-phenylquinolin-6-yl)pyrimidine-2,4-diamine], under 6.30; in that of `COc1cc(N2CCC(N3CCN(C)CC3)CC2)ccc1Nc1ncc(Br)c(Nc2ccc3ccc(-c4ccccc4)nc3c2)n1` [Example 48, 5-bromo-N^2-{2-methoxy-4-[4-(4-methylpiperazin-1-yl)piperidin-1-yl]phenyl}-N^4-(2-phenylquinolin-7-yl)pyrimidine-2,4-diamine], under 6.30.

In the case of `COc1cc(N2CCC(N3CCN(C)CC3)CC2)ccc1Nc1ncc(Br)c(Nc2ccc3ncccc3c2)n1` [Example 49, 5-bromo-N^2-{2-methoxy-4-[4-(4-methylpiperazin-1-yl)piperidin-1-yl]phenyl}-N^4-quinolin-6-ylpyrimidine-2,4-diamine], the pIC50 was 7.30 to 8.00. Regarding `COc1cc(N2CCC(N3CCN(C)CC3)CC2)ccc1Nc1ncc(Br)c(Nc2ccc3cccnc3c2)n1` [Example 50, 5-bromo-N^2-{2-methoxy-4-[4-(4-methylpiperazin-1-yl)piperidin-1-yl]phenyl}-N^4-quinolin-7-ylpyrimidine-2,4-diamine], the pIC50 was 7.30 to 8.00.

`COc1cc(N2CCC(N3CCN(C)CC3)CC2)ccc1Nc1ncc(Br)c(Oc2ccc3cccnc3c2)n1` [Example 51, 5-bromo-N-{2-methoxy-4-[4-(4-methylpiperazin-1-yl)piperidin-1-yl]phenyl}-4-(quinolin-7-yloxy)pyrimidin-2-amine]: the pIC50 is 7.30 to 8.00.
